In patent publication US11091428B2 (HAPLOGEN GMBH, priority 2016, dated 2021):
Like-named read-outs stand apart in the source and are kept apart here.

Key:
PLA2G16 = molecular target: T1, PLA2G16 (Homo sapiens, UniProt P53816); assay: Enzyme activity assay for PLA2G16 (Red/Green BODIPY PC-A2 fluorescence); type: biochemical; settings: His-tagged PLA2G16, 4 min pre-incubation, 2 nM to 50 μM; read-out: IC50 values of the compounds determined in the enzyme activity assay for PLA2G16
T1 construct: Hexa-His (N); made in house; host or cells: E. coli BL21(DE3)
T1 sequence (P53816 1-162): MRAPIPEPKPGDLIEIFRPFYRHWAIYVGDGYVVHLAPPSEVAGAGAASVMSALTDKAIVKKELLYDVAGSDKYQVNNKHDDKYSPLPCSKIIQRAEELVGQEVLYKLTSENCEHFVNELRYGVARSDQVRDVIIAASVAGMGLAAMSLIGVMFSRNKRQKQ
Procedure, shortened: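 N-His-tagged human PLA2G16 from E. coli, Ni-NTA purified. Pre-incubated 4 min with compound (2 nM–50 μM final) in pH 8.5 Tris/NaCl buffer with 5 mM glutathione, then BODIPY PC-A2 in DOPC/DOPG/cholesterol vesicles added. Fluorescence (ex 480/em 530 nm) increase over 10 min taken as activity; IC50 by non-linear regression.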

[1] = system: picornaviruses (CVB1, HRV-A2, HRV-A23, EV-68); assay: Anti-picornavirus cytopathic effect (CPE) reduction assay on HeLa H1 cells; type: cell-based; settings: HeLa H1 cells, 48 h, category from averaging the EC50 values from four picornaviruses (CVB1, HRV-A2, HRV-A23, EV68), read-out: EC50 values of the compounds determined in the anti-picornavirus assay
Procedure, shortened: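 HeLa H1 cells pre-treated 2 h with serially diluted compound in DMEM/2% FBS, then infected at an MOI giving full CPE in 2 days. After 48 h at 37° C, viability read by CellTiterBlue fluorescence (ex 560/em 590 nm), normalised to infected and uninfected vehicle controls; EC50 by non-linear regression, category from mean of four viruses.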

Compound	IC50 (PLA2G16)	EC50 ([1]; Enterovirus B, HeLa H1, 48 h)	EC50 [1]	EC50 ([1]; Enterovirus B, CVB1|EV68|HRVA2|HRVA23, HeLa H1, 48 h)
COc1ccccc1N(C=O)C(C)C(=O)C(=O)NCCc1cccc(Cl)c1 (stereo not drawn) [FP 97, N-[2-(3-Chlorophenyl)ethyl]-3-[N-(2-methoxyphenyl)formamido]-2-oxobutanamide]	< 1 µM	< 1 µM		
O=C(NC1CC(F)C1)C(=O)[C@H]1CCC(=O)N1Cc1ccccc1 (stereo partly drawn) [FP 294, 2-[(2R)-1-Benzyl-5-oxopyrrolidin-2-yl]-N-(3-fluorocyclobutyl)-2-oxoacetamide]	< 1 µM	< 1 µM		
CNC(=O)C(=O)C1N(Cc2ccccc2)C(=O)CC12CC2 (stereo not drawn) [FP 347, 2-{5-Benzyl-6-oxo-5-azaspiro[2.4]heptan-4-yl}-N-methyl-2-oxoacetamide]	< 1 µM	< 1 µM		
C[C@H](CO)NC(=O)C(=O)C1CCC(=O)N1Cc1ccc(Cl)cc1 (stereo partly drawn) [FP 258, 2-{1-[(4-Chlorophenyl)methyl]-5-oxopyrrolidin-2-yl}-N-[(2R)-1-hydroxypropan-2-yl]-2-oxoacetamide]	1 to 10 µM	1 to 10 µM		
O=C(NCc1ncccn1)C(=O)[C@H]1CCC(=O)N1Cc1ccccc1 [FP 298, 2-[(2R)-1-Benzyl-5-oxopyrrolidin-2-yl]-2-oxo-N-[(pyrimidin-2-yl)methyl]acetamide]	< 1 µM	1 to 10 µM		
O=C(NCC1CC1)C(=O)C1CCC(=O)N1CC1CCCCC1 (stereo not drawn) [FP 202, 2-[1-(Cyclohexylmethyl)-5-oxopyrrolidin-2-yl]-N-(cyclopropylmethyl)-2-oxoacetamide]	< 1 µM	< 1 µM		
CCC(NC(=O)c1ccccc1)C(=O)C(=O)NCC1CC1 (stereo not drawn) [FP 155, N-(Cyclopropylmethyl)-2-oxo-3-(phenylformamido)pentanamide]	< 1 µM	1 to 10 µM		
O=C(NC1CC1)C(=O)C1N(Cc2ccccc2)C(=O)CC12CC2 (stereo not drawn) [FP 345, 2-{5-Benzyl-6-oxo-5-azaspiro[2.4]heptan-4-yl}-N-cyclopropyl-2-oxoacetamide]	< 1 µM	< 1 µM		
CC(NC(=O)c1ccccc1)C(=O)C(=O)NCC1CC1 (stereo not drawn) [FP 178, N-(Cyclopropylmethyl)-2-oxo-3-(phenylformamido)butanamide]	< 1 µM	1 to 10 µM		
CC(C(=O)C(=O)NCc1cccc(Cl)c1)N(C=O)CC1CCOCC1 (stereo not drawn) [FP 24, N-[(3-Chlorophenyl)methyl]-3-{N[(oxan-4-yl)methyl]formamido}-2-oxobutanamide]	< 1 µM	1 to 10 µM		
CC(C)NC(=O)C(=O)C1CCC(=O)N1Cc1ccccc1 (stereo not drawn) [FP 308, 2-(1-Benzyl-5-oxopyrrolidin-2-yl)-2-oxo-N-(propan-2-yl)acetamide]	< 1 µM	< 1 µM		
CC1(C)CC(=O)N(Cc2ccccc2)C1C(=O)C(=O)NC1CC1 (stereo not drawn) [FP 349, 2-(1-Benzyl-3,3-dimethyl-5-oxopyrrolidin-2-yl)-N-cyclopropyl-2-oxoacetamide]	< 1 µM	1 to 10 µM		
CC(C)C(=O)N1CC(NC(=O)C(=O)[C@H]2CCC(=O)N2Cc2ccccc2)C1 [FP 316, 2-[(2R)-1-Benzyl-5-oxopyrrolidin-2-yl]-N-[1-(2-methylpropanoyl)azetidin-3-yl]-2-oxoacetamide]	< 1 µM	1 to 10 µM		
CC(C)C(=O)NCCCCNC(=O)C(=O)[C@H]1CCC(=O)N1Cc1ccccc1 [FP 304, N-(4-{2-[(2R)-1-Benzyl-5-oxopyrrolidin-2-yl]-2-oxoacetamido}butyl)-2-methylpropan-amide]	< 1 µM	1 to 10 µM		
COc1ccccc1N(C=O)C(C)C(=O)C(=O)NCc1ccc(Cl)cc1 (stereo not drawn) [FP 91, N-[(4-Chlorophenyl)methyl]-3-[N-(2-methoxyphenyl)formamido]-2-oxobutanamide]	< 1 µM	< 1 µM		
CC(=O)NCCNC(=O)C(=O)C1CCC(=O)N1Cc1ccc(Cl)cc1 (stereo not drawn) [FP 243, 2-{1-[(4-Chlorophenyl)methyl]-5-oxopyrrolidin-2-yl}-N-(2-acetamidoethyl)-2-oxoacetamide]	1 to 10 µM	> 10 µM		
CC(C)CNC(=O)C(=O)C(C)N(C=O)CC(C)(C)C (stereo not drawn) [FP 45, 3-[N-(2,2-Dimethylpropyl)formamido]-N-(2-methylpropyl)-2-oxobutanamide]	< 1 µM	< 1 µM		
C[C@H]1CC(=O)N(Cc2ccccc2)[C@@H]1C(=O)C(=O)NCC1CC1 (single isomer, unassigned) [FP 334]	< 1 µM	1 to 10 µM		

Compound	IC50 (PLA2G16)	EC50 ([1]; Enterovirus B, HeLa H1, 48 h)	EC50 [1]	EC50 ([1]; Enterovirus B, CVB1|EV68|HRVA2|HRVA23, HeLa H1, 48 h)
CNC(=O)C(=O)C(CC1CCC1)N(C=O)Cc1ccccc1 (stereo not drawn) [FP 196, 3-(N-Benzylformamido)-4-cyclobutyl-N-methyl-2-oxobutanamide]	< 1 µM	1 to 10 µM		
CC(C)CC(C(=O)C(=O)NCC1CC1)N(C=O)CC1CC1 (stereo not drawn) [FP 62, N-(Cyclopropylmethyl)-3-[N-(cyclopropylmethyl)formamido]-5-methyl-2-oxohexanamide]	< 1 µM	< 1 µM		
O=CN(CC1CCOCC1)C(C(=O)C(=O)NCC1CC1)C1CC1 (stereo not drawn) [FP 66, 3-Cyclopropyl-N-(cyclopropylmethyl)-3-{N-[(oxan-4-yl)methyl]formamido}-2-oxopropanamide]	< 1 µM	1 to 10 µM		
COc1ccccc1N(C=O)CCC(=O)C(=O)NCc1cccc(Cl)c1 [FP 115, N-[(3-Chlorophenyl)methyl]-4-[N-(2-methoxyphenyl)formamido]-2-oxobutanamide]	< 1 µM	1 to 10 µM		
CC(C)CC(C(=O)C(=O)NCC1CC1)N(C=O)C[C@@H]1CCOC1 (stereo partly drawn) [FP 64, N-(Cyclopropylmethyl)-5-methyl-2-oxo-3-(N{[(3S)-oxolan-3-yl]methyl}formamido) hexanamide]	< 1 µM	1 to 10 µM		
Cc1ccccc1C(=O)NC(C)C(=O)C(=O)NCC1CC1 (stereo not drawn) [FP 156, N-(Cyclopropylmethyl)-3-[(2-methylphenyl)formamido]-2-oxobutanamide]	< 1 µM	1 to 10 µM		
CC(NC(=O)c1ccncc1)C(=O)C(=O)NCC1CCCCC1 (stereo not drawn) [FP 205, N-(Cyclohexylmethyl)-2-oxo-3-[(pyridin-4-yl)formamido]butanamide]	< 1 µM	1 to 10 µM		
CC(C)CNC(=O)C(=O)C(C)OC1CCCCC1 (stereo not drawn) [FP 124, 3-(Cyclohexyloxy)-N-(2-methylpropyl)-2-oxobutanamide]	< 1 µM	< 1 µM		
CC1CC(=O)N(Cc2ccccc2)[C@@H]1C(=O)C(=O)NC1CC1 (single isomer, unassigned) [FP 339]	1 to 10 µM		> 10 µM	
CNC(=O)C(=O)[C@H]1CCC(=O)N1Cc1ccc(Cl)cc1 [FP 283, 2-[(2R)-1-[(4-Chlorophenyl)methyl]-5-oxopyrrolidin-2-yl]-N-methyl-2-oxoacetamide]	< 1 µM	1 to 10 µM		
COc1ccccc1N(C(=O)C(C)C)C(C)C(=O)C(=O)NCc1cccc(Cl)c1 (stereo not drawn) [FP 142, N-[(3-Chlorophenyl)methyl]-3-[N-(2-methoxyphenyl)-2-methylpropanamido]-2-oxobutanamide]	< 1 µM	1 to 10 µM		
CC(F)(F)CNC(=O)C(=O)[C@H]1CCC(=O)N1Cc1ccccc1 [FP 295, 2-[(2R)-1-Benzyl-5-oxopyrrolidin-2-yl]-N-(2,2-difluoropropyl)-2-oxoacetamide]	< 1 µM	< 1 µM		
O=C(N[C@@H]1CCCCNC1=O)C(=O)[C@H]1CCC(=O)N1Cc1ccccc1 [FP 300, 2-[(2R)-1-Benzyl-5-oxopyrrolidin-2-yl]-2-oxo-N-[(3R)-2-oxoazepan-3-yl]acetamide]	< 1 µM	1 to 10 µM		
O=CN(Cc1ccccc1)[C@@H](Cc1c[nH]cn1)C(=O)C(=O)NCC1CC1 [FP 119, (3S)-3-(N-Benzylformamido)-N-(cyclopropylmethyl)-4-(1H-imidazol-4-yl)-2-oxobutanamide]	< 1 µM	> 10 µM		
O=C(N[C@@H]1CCCC[C@@H]1O)C(=O)[C@H]1CCC(=O)N1Cc1ccccc1 (single isomer, unassigned) [FP 272]	1 to 10 µM	> 10 µM		
CC(C)CC(C(=O)C(=O)NCC1CC1)N(C=O)CC1CCOCC1 (stereo not drawn) [FP 63, N-(Cyclopropylmethyl)-5-methyl-3-{N-[(oxan-4-yl)methyl]formamido}-2-oxohexanamide]	< 1 µM	< 1 µM		
Cc1csc(CN2C(=O)CCC2C(=O)C(=O)NCC2CCCC2)n1 (stereo not drawn)	< 1 µM			< 1 µM
CC(C)CC(C(=O)C(=O)NCC1CC1)N(C=O)CC1CCOC1 (stereo not drawn) [FP 73, N-(Cyclopropylmethyl)-5-methyl-2-oxo-3-{N-[(oxolan-3-yl)methyl]formamido} hexanamide]	< 1 µM	1 to 10 µM		
